Data as given in patent publication US20100209345A1, “Fluorinated Ligands for Targeting Peripheral Benzodiazepine Receptors” (Australian Nuclear Science & Technology Organisation, priority 2006, published 2010).

Legend:
[1] = Biodistribution of 18F-labelled tracers in rats; format: in vivo
Procedure, shortened: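 Sprague-Dawley rats received 18F tracer, and brain and peripheral tissues were analysed at 15 and 30 min and 1 and 4 h post-injection. For specificity, rats were pretreated 5 min beforehand with PK11195 or Ro 5-4864 (PBR) or flumazenil (CBR), each at 1 mg/kg.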

[2] = molecular target: T1, peripheral benzodiazepine binding site (Rattus norvegicus, UniProt P16257); experiment: In vitro binding, [3H]-PK11195, kidney membrane preparation; conditions: PBR IC50 (nM), [3H]-PK11195 (2 nM), 4° C., 1 h
T1 construct: diluted kidney membrane preparation (200 μg); from tissue; host or cells: kidney membrane preparation
Procedure: Non-specific binding was determined with PK11195 (10 μM).
Non-specific binding was determined with Flumazenil (20 μM). In both cases, incubations were terminated by rapid filtration through Whatman GF/B glass fibre. Filters were immediately washed 3 times with 5 mL ice-cold 50 mM Tris/HCl at pH 7.4. Filters were counted in a β-scintillation counter (Packard) to measure the amount of bound radioactivity. The IC50 of the compounds for the peripheral benzodiazepine binding site and the central benzodiazepine receptor were calculated using Kell 6 software.

[3] = SD rats, 15 min, decay correction not stated
[4] = SD rats, 4 hours, decay correction not stated
[5] = rats, 15 min, corrected for decay of 18F
[6] = rats, 15 min, not corrected for decay of 18F
[7] = rats, 30 min, corrected for decay of 18F
[8] = rats, 30 min, not corrected for decay of 18F
[9] = rats, 60 min (1 hour), not corrected for decay of 18F
[10] = rats, 60 min, corrected for decay of 18F
[11] = rats, 4 hours, corrected for decay of 18F
[12] = rats, 4 hours, not corrected for decay of 18F

In the case of `CCN(CC)C(=O)Cc1c(-c2ccc(OCCF)cc2)nc2ccc(Cl)cn12` [PBR102, 2-(2-(4-(2-fluoroethoxy)phenyl)-6-chloroimidazo[1,2-a]pyridin-3-yl)-N,N-diethylacetamide], the “Biodistribution: Bone” value [1, 3] is reported as 0.4 % ID/g, the “Biodistribution: Kidney” value [1, 3] is reported as 4.5 % ID/g and the “Biodistribution: Olfactory bulbs” value [1, 3] is reported as 0.56 % ID/g. The “Biodistribution: Adrenals” value ([1]; SD rats, 30 min, decay correction not stated) was 9 % ID/g, the “Biodistribution: Adrenals” value [1, 4] was 11 % ID/g and the “Biodistribution: Bone” value [1, 4] was 1.0 % ID/g. For the same compound, the “Biodistribution: Kidney” value [1, 4] was 1.3 % ID/g, the “Biodistribution: Olfactory bulbs” value [1, 4] was 0.40 % ID/g and the “Blood activity level / concentration in the blood over the 4 h study period” value ([1]; SD rats, throughout 15 min to 4 h) was 0.20%. For the same compound, the “Biodistribution: Bone” value [1, 5] was 0.46 ± 0.04 % ID/g, the “Biodistribution: Heart” value [1, 5] was 4.35 ± 0.33 % ID/g and the “Biodistribution: Lungs” value [1, 5] was 14.30 ± 1.45 % ID/g. The “Biodistribution: Skin” value [1, 5] was 0.24 ± 0.03 % ID/g, the “Biodistribution: Adrenals” value [1, 6] was 8.30 ± 2.13 % ID/g and the “Biodistribution: Bladder” value [1, 6] was 0.59 ± 0.14 % ID/g. For the same compound, the “Biodistribution: Blood” value [1, 6] was 0.25 ± 0.06 % ID/g, the “Biodistribution: Bone” value [1, 6] was 0.56 ± 0.07 % ID/g and the “Biodistribution: Brain” value [1, 6] was 0.24 ± 0.03 % ID/g. The “Biodistribution: GIT” value [1, 6] was 0.82 ± 0.11 % ID/g, the “Biodistribution: Heart” value [1, 6] was 5.23 ± 0.33 % ID/g and the “Biodistribution: Kidney” value [1, 6] was 3.90 ± 0.53 % ID/g. For the same compound, the “Biodistribution: Liver” value [1, 6] was 0.75 ± 0.21 % ID/g, the “Biodistribution: Lungs” value [1, 6] was 17.25 ± 1.70 % ID/g and the “Biodistribution: Muscle” value [1, 6] was 0.49 ± 0.03 % ID/g. For the same compound, the “Biodistribution: Olfactory bulbs” value [1, 6] was 0.68 ± 0.12 % ID/g, the “Biodistribution: Pancreas” value [1, 6] was 1.74 ± 0.22 % ID/g and the “Biodistribution: Skin” value [1, 6] was 0.29 ± 0.05 % ID/g. The “Biodistribution: Spleen” value [1, 6] was 5.35 ± 0.89 % ID/g, the “Biodistribution: Stomach” value [1, 6] was 0.80 ± 0.19 % ID/g and the “Biodistribution: Testes” value [1, 6] was 0.22 ± 0.02 % ID/g. The “Biodistribution: Thymus” value [1, 6] was 0.68 ± 0.17 % ID/g, the “Biodistribution: Thyroid” value [1, 6] was 7.74 ± 1.90 % ID/g and the “Biodistribution: Bone” value [1, 7] was 0.52 ± 0.05 % ID/g. For the same compound, the “Biodistribution: Heart” value [1, 7] was 4.44 ± 0.26 % ID/g, the “Biodistribution: Lungs” value [1, 7] was 12.10 ± 1.98 % ID/g and the “Biodistribution: Skin” value [1, 7] was 0.31 ± 0.03 % ID/g. For the same compound, the “Biodistribution: Adrenals” value [1, 8] was 9.75 ± 1.53 % ID/g, the “Biodistribution: Bladder” value [1, 8] was 0.67 ± 0.16 % ID/g and the “Biodistribution: Blood” value [1, 8] was 0.21 ± 0.03 % ID/g. The “Biodistribution: Bone” value [1, 8] was 0.64 ± 0.12 % ID/g, the “Biodistribution: Brain” value [1, 8] was 0.20 ± 0.04 % ID/g and the “Biodistribution: GIT” value [1, 8] was 1.07 ± 0.26 % ID/g. For the same compound, the “Biodistribution: Heart” value [1, 8] was 5.41 ± 0.71 % ID/g, the “Biodistribution: Kidney” value [1, 8] was 3.95 ± 1.01 % ID/g and the “Biodistribution: Liver” value [1, 8] was 0.63 ± 0.21 % ID/g. The “Biodistribution: Lungs” value [1, 8] was 14.80 ± 3.67 % ID/g, the “Biodistribution: Muscle” value [1, 8] was 0.46 ± 0.08 % ID/g and the “Biodistribution: Olfactory bulbs” value [1, 8] was 0.44 ± 0.05 % ID/g. The “Biodistribution: Pancreas” value [1, 8] was 1.42 ± 0.45 % ID/g, the “Biodistribution: Skin” value [1, 8] was 0.37 ± 0.05 % ID/g and the “Biodistribution: Spleen” value [1, 8] was 4.68 ± 0.90 % ID/g. The “Biodistribution: Stomach” value [1, 8] was 0.71 ± 0.21 % ID/g, the “Biodistribution: Testes” value [1, 8] was 0.29 ± 0.05 % ID/g and the “Biodistribution: Thymus” value [1, 8] was 0.81 ± 0.06 % ID/g. The “Biodistribution: Thyroid” value [1, 8] was 10.70 ± 2.08 % ID/g, the “Biodistribution: Adrenals” value [1, 9] was 7.88 ± 1.86 % ID/g and the “Biodistribution: Bladder” value [1, 9] was 0.60 ± 0.11 % ID/g. The “Biodistribution: Blood” value [1, 9] was 0.20 ± 0.03 % ID/g, the “Biodistribution: Bone” value [1, 9] was 0.73 ± 0.13 % ID/g and the “Biodistribution: Brain” value [1, 9] was 0.20 ± 0.03 % ID/g. For the same compound, the “Biodistribution: GIT” value [1, 9] was 1.09 ± 0.13 % ID/g, the “Biodistribution: Heart” value [1, 9] was 5.32 ± 0.74 % ID/g and the “Biodistribution: Kidney” value [1, 9] was 3.10 ± 0.51 % ID/g. The “Biodistribution: Liver” value [1, 9] was 0.40 ± 0.04 % ID/g, the “Biodistribution: Lungs” value [1, 9] was 13.44 ± 2.71 % ID/g and the “Biodistribution: Muscle” value [1, 9] was 0.39 ± 0.07 % ID/g. For the same compound, the “Biodistribution: Olfactory bulbs” value [1, 9] was 0.52 ± 0.05 % ID/g, the “Biodistribution: Pancreas” value [1, 9] was 0.88 ± 0.18 % ID/g and the “Biodistribution: Skin” value [1, 9] was 0.43 ± 0.07 % ID/g. For the same compound, the “Biodistribution: Spleen” value [1, 9] was 3.89 ± 0.54 % ID/g, the “Biodistribution: Stomach” value [1, 9] was 0.52 ± 0.13 % ID/g and the “Biodistribution: Testes” value [1, 9] was 0.37 ± 0.06 % ID/g. For the same compound, the “Biodistribution: Thymus” value [1, 9] was 0.91 ± 0.16 % ID/g, the “Biodistribution: Thyroid” value [1, 9] was 11.55 ± 4.24 % ID/g and the “Biodistribution: Bone” value [1, 10] was 0.64 ± 0.07 % ID/g. For the same compound, the “Biodistribution: Heart” value [1, 10] was 4.62 ± 0.27 % ID/g, the “Biodistribution: Lungs” value [1, 10] was 11.63 ± 1.52 % ID/g and the “Biodistribution: Skin” value [1, 10] was 0.37 ± 0.03 % ID/g. The “Biodistribution: Bone” value [1, 11] was 1.01 ± 0.09 % ID/g, the “Biodistribution: Heart” value [1, 11] was 2.82 ± 0.15 % ID/g and the “Biodistribution: Lungs” value [1, 11] was 8.09 ± 1.14 % ID/g. The “Biodistribution: Skin” value [1, 11] was 0.49 ± 0.03 % ID/g, the “Biodistribution: Adrenals” value [1, 12] was 9.77 ± 2.42 % ID/g and the “Biodistribution: Bladder” value [1, 12] was 1.08 ± 0.14 % ID/g. For the same compound, the “Biodistribution: Blood” value [1, 12] was 0.26 ± 0.03 % ID/g, the “Biodistribution: Bone” value [1, 12] was 1.22 ± 0.22 % ID/g and the “Biodistribution: Brain” value [1, 12] was 0.23 ± 0.03 % ID/g. The “Biodistribution: GIT” value [1, 12] was 1.43 ± 0.34 % ID/g, the “Biodistribution: Heart” value [1, 12] was 3.38 ± 0.44 % ID/g and the “Biodistribution: Kidney” value [1, 12] was 1.61 ± 0.29 % ID/g. For the same compound, the “Biodistribution: Liver” value [1, 12] was 0.34 ± 0.05 % ID/g, the “Biodistribution: Lungs” value [1, 12] was 10.26 ± 1.09 % ID/g and the “Biodistribution: Muscle” value [1, 12] was 0.27 ± 0.03 % ID/g. The “Biodistribution: Olfactory bulbs” value [1, 12] was 0.50 ± 0.13 % ID/g, the “Biodistribution: Pancreas” value [1, 12] was 0.49 ± 0.12 % ID/g and the “Biodistribution: Skin” value [1, 12] was 0.59 ± 0.06 % ID/g. The “Biodistribution: Spleen” value [1, 12] was 2.29 ± 0.50 % ID/g, the “Biodistribution: Stomach” value [1, 12] was 0.49 ± 0.13 % ID/g and the “Biodistribution: Testes” value [1, 12] was 0.52 ± 0.06 % ID/g. The “Biodistribution: Thymus” value [1, 12] was 1.21 ± 0.27 % ID/g, the “Biodistribution: Thyroid” value [1, 12] was 8.29 ± 3.22 % ID/g and the IC50 [2] was 13.2 nM.
